# According to the NIST ThermoML archive (doi:10.1016/j.fluid.2014.09.014):
# Numbers after ± are expanded uncertainties.
# Test: refractive index (other wavelength) (dimensionless); xn = mol fraction of the nth substance listed
# Settings: 313.15 K, 101 kPa, Liquid, Standard Abbe refractometry
smiles,measurement,setting,value
CC(C)OC(C)C [diisopropyl ether] + CO,refractive index,"Wavelength=587.6 nm, x2 = 0.5543",1.3516 ± 0.00035
same,refractive index,"Wavelength=587.6 nm, x2 = 0.609",1.34934 ± 0.00034
same,refractive index,"Wavelength=587.6 nm, x2 = 0.6529",1.34786 ± 0.00034
same,refractive index,"Wavelength=587.6 nm, x2 = 0.7504",1.34401 ± 0.00033
same,refractive index,"Wavelength=587.6 nm, x2 = 0.804",1.33965 ± 0.00033
same,refractive index,"Wavelength=587.6 nm, x2 = 0.807",1.33975 ± 0.00033
same,refractive index,"Wavelength=587.6 nm, x2 = 0.8727",1.33626 ± 0.00032
same,refractive index,"Wavelength=587.6 nm, x2 = 0.9233",1.3284 ± 0.00033
same,refractive index,"Wavelength=587.6 nm, x2 = 0.9253",1.33006 ± 0.00032
same,refractive index,"Wavelength=587.6 nm, x2 = 0.9527",1.32712 ± 0.00032
same,refractive index,"Wavelength=587.6 nm, x2 = 0.9773",1.32383 ± 0.00032
same,refractive index,"Wavelength=587.6 nm, x2 = 0.989",1.32263 ± 0.00032
same,refractive index,"Wavelength=587.6 nm, x2 = 0.9964",1.32167 ± 0.00032
same,refractive index,"Wavelength=589.3 nm, x2 = 0",1.35694 ± 0.00044
same,refractive index,"Wavelength=589.3 nm, x2 = 0.0423",1.35688 ± 0.00043
same,refractive index,"Wavelength=589.3 nm, x2 = 0.0424",1.3569 ± 0.00043
same,refractive index,"Wavelength=589.3 nm, x2 = 0.082",1.35685 ± 0.00042
same,refractive index,"Wavelength=589.3 nm, x2 = 0.0822",1.35704 ± 0.00042
same,refractive index,"Wavelength=589.3 nm, x2 = 0.1171",1.3569 ± 0.00041
same,refractive index,"Wavelength=589.3 nm, x2 = 0.1271",1.35691 ± 0.00041
same,refractive index,"Wavelength=589.3 nm, x2 = 0.1827",1.35671 ± 0.0004
same,refractive index,"Wavelength=589.3 nm, x2 = 0.2162",1.35656 ± 0.0004
same,refractive index,"Wavelength=589.3 nm, x2 = 0.251",1.35622 ± 0.00039
same,refractive index,"Wavelength=589.3 nm, x2 = 0.3298",1.35621 ± 0.00038
same,refractive index,"Wavelength=589.3 nm, x2 = 0.3577",1.3559 ± 0.00038
same,refractive index,"Wavelength=589.3 nm, x2 = 0.4497",1.35414 ± 0.00037
same,refractive index,"Wavelength=589.3 nm, x2 = 0.4525",1.35454 ± 0.00037
same,refractive index,"Wavelength=589.3 nm, x2 = 0.522",1.35241 ± 0.00035
same,refractive index,"Wavelength=589.3 nm, x2 = 0.5543",1.35155 ± 0.00035
same,refractive index,"Wavelength=589.3 nm, x2 = 0.609",1.34929 ± 0.00034
same,refractive index,"Wavelength=589.3 nm, x2 = 0.6529",1.34781 ± 0.00034
same,refractive index,"Wavelength=589.3 nm, x2 = 0.7504",1.34396 ± 0.00033
same,refractive index,"Wavelength=589.3 nm, x2 = 0.804",1.3396 ± 0.00035
same,refractive index,"Wavelength=589.3 nm, x2 = 0.807",1.3409 ± 0.00033
same,refractive index,"Wavelength=589.3 nm, x2 = 0.8727",1.33609 ± 0.00032
same,refractive index,"Wavelength=589.3 nm, x2 = 0.9233",1.32835 ± 0.00033
same,refractive index,"Wavelength=589.3 nm, x2 = 0.9253",1.33001 ± 0.00032
same,refractive index,"Wavelength=589.3 nm, x2 = 0.9527",1.32708 ± 0.00032
same,refractive index,"Wavelength=589.3 nm, x2 = 0.9773",1.32378 ± 0.00032
same,refractive index,"Wavelength=589.3 nm, x2 = 0.989",1.32259 ± 0.00032
same,refractive index,"Wavelength=589.3 nm, x2 = 0.9964",1.32163 ± 0.00032
same,refractive index,"Wavelength=632.8 nm, x2 = 0",1.35572 ± 0.00043
same,refractive index,"Wavelength=632.8 nm, x2 = 0.0423",1.35563 ± 0.00043
same,refractive index,"Wavelength=632.8 nm, x2 = 0.0424",1.35568 ± 0.00043
same,refractive index,"Wavelength=632.8 nm, x2 = 0.082",1.35562 ± 0.00042
same,refractive index,"Wavelength=632.8 nm, x2 = 0.0822",1.35581 ± 0.00042
same,refractive index,"Wavelength=632.8 nm, x2 = 0.1171",1.35567 ± 0.00041
same,refractive index,"Wavelength=632.8 nm, x2 = 0.1271",1.35566 ± 0.00041
same,refractive index,"Wavelength=632.8 nm, x2 = 0.1827",1.35548 ± 0.0004
same,refractive index,"Wavelength=632.8 nm, x2 = 0.2162",1.35535 ± 0.0004
same,refractive index,"Wavelength=632.8 nm, x2 = 0.251",1.35489 ± 0.00039
same,refractive index,"Wavelength=632.8 nm, x2 = 0.3298",1.35494 ± 0.00038
same,refractive index,"Wavelength=632.8 nm, x2 = 0.3577",1.35417 ± 0.00038
same,refractive index,"Wavelength=632.8 nm, x2 = 0.4497",1.35292 ± 0.00037
same,refractive index,"Wavelength=632.8 nm, x2 = 0.4525",1.35331 ± 0.00037
same,refractive index,"Wavelength=632.8 nm, x2 = 0.522",1.3512 ± 0.00035
same,refractive index,"Wavelength=632.8 nm, x2 = 0.5543",1.35036 ± 0.00035
same,refractive index,"Wavelength=632.8 nm, x2 = 0.609",1.3481 ± 0.00034
same,refractive index,"Wavelength=632.8 nm, x2 = 0.6529",1.34667 ± 0.00034
same,refractive index,"Wavelength=632.8 nm, x2 = 0.7504",1.34279 ± 0.00033
same,refractive index,"Wavelength=632.8 nm, x2 = 0.804",1.33846 ± 0.00033
same,refractive index,"Wavelength=632.8 nm, x2 = 0.807",1.33854 ± 0.00033
same,refractive index,"Wavelength=632.8 nm, x2 = 0.8727",1.33509 ± 0.00032
same,refractive index,"Wavelength=632.8 nm, x2 = 0.9233",1.32726 ± 0.00033
same,refractive index,"Wavelength=632.8 nm, x2 = 0.9253",1.32891 ± 0.00032
same,refractive index,"Wavelength=632.8 nm, x2 = 0.9527",1.32598 ± 0.00032
same,refractive index,"Wavelength=632.8 nm, x2 = 0.9773",1.32372 ± 0.00032
same,refractive index,"Wavelength=632.8 nm, x2 = 0.989",1.32154 ± 0.00032
same,refractive index,"Wavelength=632.8 nm, x2 = 0.9964",1.32058 ± 0.00032
same,refractive index,"Wavelength=644 nm, x2 = 0",1.35543 ± 0.00043
same,refractive index,"Wavelength=644 nm, x2 = 0.0423",1.35534 ± 0.00043
same,refractive index,"Wavelength=644 nm, x2 = 0.0424",1.3554 ± 0.00043
same,refractive index,"Wavelength=644 nm, x2 = 0.082",1.35532 ± 0.00042
same,refractive index,"Wavelength=644 nm, x2 = 0.0822",1.35552 ± 0.00042
same,refractive index,"Wavelength=644 nm, x2 = 0.1171",1.35538 ± 0.00041
same,refractive index,"Wavelength=644 nm, x2 = 0.1271",1.35538 ± 0.00041
same,refractive index,"Wavelength=644 nm, x2 = 0.1827",1.35518 ± 0.0004
same,refractive index,"Wavelength=644 nm, x2 = 0.2162",1.35505 ± 0.0004
same,refractive index,"Wavelength=644 nm, x2 = 0.251",1.3546 ± 0.00039
same,refractive index,"Wavelength=644 nm, x2 = 0.3298",1.35463 ± 0.00038
same,refractive index,"Wavelength=644 nm, x2 = 0.3577",1.35388 ± 0.00038
same,refractive index,"Wavelength=644 nm, x2 = 0.4497",1.35264 ± 0.00037
same,refractive index,"Wavelength=644 nm, x2 = 0.4525",1.35302 ± 0.00037
same,refractive index,"Wavelength=644 nm, x2 = 0.522",1.35091 ± 0.00035
same,refractive index,"Wavelength=644 nm, x2 = 0.5543",1.35008 ± 0.00035
same,refractive index,"Wavelength=644 nm, x2 = 0.609",1.34783 ± 0.00034
same,refractive index,"Wavelength=644 nm, x2 = 0.6529",1.34638 ± 0.00034
same,refractive index,"Wavelength=644 nm, x2 = 0.7504",1.34252 ± 0.00033
same,refractive index,"Wavelength=644 nm, x2 = 0.804",1.33821 ± 0.00033
same,refractive index,"Wavelength=644 nm, x2 = 0.807",1.33829 ± 0.00033
same,refractive index,"Wavelength=644 nm, x2 = 0.8727",1.33482 ± 0.00032
same,refractive index,"Wavelength=644 nm, x2 = 0.9233",1.32702 ± 0.00033
same,refractive index,"Wavelength=644 nm, x2 = 0.9253",1.32867 ± 0.00032
